Assay results reported in PubChem BioAssay AID248 (DTP/NCI, 2004).
Where “and” joins values, the source holds several entries; their conditions need not be identical. Equal values may be shown once. Inconclusive results and toxic doses are left out. Rule as the data show it: active = T/C of 150% or more; inactive = T/C below 125%.

Tested on: L1210 leukemia ip in BDF1 mice, survival T/C
Experiment: NCI In Vivo Anticancer Drug Screen. Data for tumor model L1210 Leukemia (intraperitoneal) in B6D2F1 (BDF1) mice
Settings: endpoint: mean survival time, higher = longer survival
Procedure, shortened: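 Ratio derived from survival: compound-dosed mice over vehicle-dosed mice, all bearing a transplantable tumor.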

[1] = dose: 100.0 mg/kg/injection, schedule: Q01DX009 (ip), vehicle: Klucel (hydroxypropylcellulose) (HPC)
[2] = dose: 100.0 mg/kg/injection, schedule: Q04DX003 (ip), vehicle: Klucel (hydroxypropylcellulose) (HPC)
[3] = dose: 200.0 mg/kg/injection, schedule: Q01DX009 (ip), vehicle: Klucel (hydroxypropylcellulose) (HPC)
[4] = dose: 200.0 mg/kg/injection, schedule: Q04DX003 (ip), vehicle: Klucel (hydroxypropylcellulose) (HPC)
[5] = dose: 400.0 mg/kg/injection, schedule: Q01DX009 (ip), vehicle: Klucel (hydroxypropylcellulose) (HPC)
[6] = dose: 400.0 mg/kg/injection, schedule: Q04DX003 (ip), vehicle: Klucel (hydroxypropylcellulose) (HPC)
[7] = dose: 100.0 mg/kg/injection, schedule: Q01DX001 (ip), vehicle: carboxymethylcellulose (CMC)
[8] = dose: 100.0 mg/kg/injection, schedule: Q01DX009 (ip), vehicle: saline with Tween-80
[9] = dose: 100.0 mg/kg/injection, schedule: Q04DX003 (ip), vehicle: saline with Tween-80
[10] = dose: 200.0 mg/kg/injection, schedule: Q01DX001 (ip), vehicle: carboxymethylcellulose (CMC)
[11] = dose: 200.0 mg/kg/injection, schedule: Q01DX009 (ip), vehicle: saline with Tween-80
[12] = dose: 200.0 mg/kg/injection, schedule: Q04DX003 (ip), vehicle: saline with Tween-80
[13] = dose: 400.0 mg/kg/injection, schedule: Q01DX001 (ip), vehicle: carboxymethylcellulose (CMC)
[14] = dose: 400.0 mg/kg/injection, schedule: Q01DX009 (ip), vehicle: saline with Tween-80
[15] = dose: 400.0 mg/kg/injection, schedule: Q04DX003 (ip), vehicle: saline with Tween-80
[16] = dose: 50.0 mg/kg/injection, schedule: Q04DX003 (ip), vehicle: Klucel (hydroxypropylcellulose) (HPC)
[17] = dose: 12.5 mg/kg/injection, schedule: Q04DX002 (ip), vehicle: Klucel (hydroxypropylcellulose) (HPC)
[18] = dose: 25.0 mg/kg/injection, schedule: Q04DX002 (ip), vehicle: Klucel (hydroxypropylcellulose) (HPC)

Measured: T/C

Cc1ccc(S(=O)(=O)N(CCCc2c(C)nc(N)nc2NCCCc2ccccc2)c2ccccc2)cc1
inactive: dose: 50.0 mg/kg/injection, schedule: Q01DX001 (ip), vehicle: saline with Tween-80 98 % of control | dose: 100.0 mg/kg/injection, schedule: Q01DX001 (ip), vehicle: saline with Tween-80 98 % of control | dose: 200.0 mg/kg/injection, schedule: Q01DX001 (ip), vehicle: saline with Tween-80 90 % of control

Cc1ccc(C)c(NC(=O)Oc2cc(C)c(Cl)cc2C(C)C)c1
inactive: [1] 92 % of control and 102 % of control | [2] 103 % of control | [3] 100 % of control and 87 % of control | [4] 115 % of control | [5] 102 % of control and 90 % of control | [6] 97 % of control

COc1ccc(C(=O)OC(=O)c2ccc(OC)cc2)cc1
inactive: dose: 50.0 mg/kg/injection, schedule: Q01DX001 (ip), vehicle: carboxymethylcellulose (CMC) 110 % of control | [7] 104 % of control | [8] 113 % of control | [9] 102 % of control | [10] 108 % of control | [11] 116 % of control | [12] 102 % of control | [13] 112 % of control | [14] 110 % of control | [15] 101 % of control

CC1CCC2(OC1)OC1CC3C4CCC5CC(O)CCC5(C)C4CC(=O)OC3(C)C1C2C (stereo unspecified)
inactive: dose: 100.0 mg/kg/injection, schedule: Q01DX001 (ip), vehicle: other 97 % of control | dose: 200.0 mg/kg/injection, schedule: Q01DX001 (ip), vehicle: other 87 % of control | dose: 400.0 mg/kg/injection, schedule: Q01DX001 (ip), vehicle: other 92 % of control

O=C1c2ccccc2C(=O)N1c1c2ccccc2cc2ccccc12
inactive: dose: 100.0 mg/kg/injection, schedule: Q04DX003 (ip), vehicle: saline sonified 98 % of control | dose: 200.0 mg/kg/injection, schedule: Q04DX003 (ip), vehicle: saline sonified 95 % of control | dose: 400.0 mg/kg/injection, schedule: Q04DX003 (ip), vehicle: saline sonified 95 % of control

CCC1CN2C(=N1)c1ccccc1-c1cc([N+](=O)[O-])ccc12 (stereo unspecified)
inactive: [1] 101 % of control | [2] 99 % of control | [3] 104 % of control | [4] 106 % of control | [5] 95 % of control | [6] 97 % of control

Nc1ccc(Cc2ccc(Cl)cc2)cc1
inactive: dose: 75.0 mg/kg/injection, schedule: Q01DX001 (ip), vehicle: acetone 94 % of control | dose: 150.0 mg/kg/injection, schedule: Q01DX001 (ip), vehicle: acetone 94 % of control | dose: 300.0 mg/kg/injection, schedule: Q01DX001 (ip), vehicle: acetone 91 % of control

CC1CSC(=S)S1 (stereo unspecified)
inactive: [16] 102 % of control | [2] 107 % of control | [4] 104 % of control

CC(C)=CCC/C(C)=C\C=N\O
inactive: [7] 101 % of control | [10] 95 % of control | [13] 98 % of control

O=C1C=CC(=O)C2C1C1(Cl)CC2(Cl)C(Cl)=C1Cl (stereo unspecified)
inactive: dose: 6.25 mg/kg/injection, schedule: Q04DX002 (ip), vehicle: Klucel (hydroxypropylcellulose) (HPC) 100 % of control | [17] 95 % of control | [18] 100 % of control and 108 % of control

Cc1nccn1-c1ccccc1N=Cc1ccc(N(CCCl)CCCl)cc1Cl
inactive: dose: 100.0 mg/kg/injection, schedule: Q04DX002 (ip), vehicle: saline 102 % of control | dose: 200.0 mg/kg/injection, schedule: Q04DX002 (ip), vehicle: saline 102 % of control | dose: 400.0 mg/kg/injection, schedule: Q04DX002 (ip), vehicle: saline 98 % of control

COc1cc(Br)c(CC(=O)c2cn(C(=O)Cc3cc(OC)c(OC)cc3Br)c3ccc(Br)cc23)cc1OC
inactive: dose: 50.0 mg/kg/injection, schedule: Q01DX001 (ip), vehicle: saline 106 % of control | dose: 100.0 mg/kg/injection, schedule: Q01DX001 (ip), vehicle: saline 96 % of control | dose: 200.0 mg/kg/injection, schedule: Q01DX001 (ip), vehicle: saline 102 % of control | dose: 400.0 mg/kg/injection, schedule: Q01DX001 (ip), vehicle: saline 96 % of control

O=S(=O)(O)SCNCNCCSCc1ccccc1
inactive: [17] 91 % of control | [18] 112 % of control | dose: 50.0 mg/kg/injection, schedule: Q04DX002 (ip), vehicle: Klucel (hydroxypropylcellulose) (HPC) 91 % of control

O=C1CC(c2ccccc2)NN1c1ccccc1 (stereo unspecified)
inactive: dose: 50.0 mg/kg/injection, schedule: Q01DX009 (ip), vehicle: saline with Tween-80 95 % of control and 97 % of control | [8] 100 % of control and 103 % of control | dose: 100.0 mg/kg/injection, schedule: Q04DX002 (ip), vehicle: alcohol 102 % of control | dose: 200.0 mg/kg/injection, schedule: Q04DX002 (ip), vehicle: alcohol 104 % of control | dose: 400.0 mg/kg/injection, schedule: Q04DX002 (ip), vehicle: alcohol 94 % of control

COc1ccccc1C(=S)N1CCOCC1
inactive: [2] 91 % of control | [4] 96 % of control | [6] 99 % of control

CCOc1ccc(-n2c(=O)c(N=Nc3ccccc3OC)c(O)n(-c3ccccc3OC)c2=S)cc1
inactive: dose: 50.0 mg/kg/injection, schedule: Q01DX001 (ip), vehicle: Klucel (hydroxypropylcellulose) (HPC) 91 % of control | dose: 100.0 mg/kg/injection, schedule: Q01DX001 (ip), vehicle: Klucel (hydroxypropylcellulose) (HPC) 100 % of control | dose: 200.0 mg/kg/injection, schedule: Q01DX001 (ip), vehicle: Klucel (hydroxypropylcellulose) (HPC) 87 % of control

CC(=O)Nc1cccc(C(C)=O)c1[N+](=O)[O-]
inactive: [9] 100 % of control | [12] 94 % of control | [15] 100 % of control

CCOC(=O)Cc1ccc([N+](=O)[O-])cc1
inactive: dose: 25.0 mg/kg/injection, schedule: Q04DX003 (ip), vehicle: Klucel (hydroxypropylcellulose) (HPC) 94 % of control | [16] 105 % of control | [2] 104 % of control and 105 % of control | dose: 150.0 mg/kg/injection, schedule: Q04DX003 (ip), vehicle: Klucel (hydroxypropylcellulose) (HPC) 107 % of control | dose: 225.0 mg/kg/injection, schedule: Q04DX003 (ip), vehicle: Klucel (hydroxypropylcellulose) (HPC) 100 % of control

O=C(NC(O)C(Cl)(Cl)Cl)c1ccccc1O (stereo unspecified)
inactive: [8] 95 % of control | [9] 93 % of control | [11] 103 % of control | [12] 95 % of control | [15] 95 % of control

Oc1ccccc1OCCOCCOc1ccccc1O
inactive: dose: 100.0 mg/kg/injection, schedule: Q04DX002 (ip), vehicle: other 90 % of control

COc1ccc(OC)c(NC(=O)c2cc3ccccc3cc2OC(=O)Nc2cc(Cl)ccc2OC)c1
inactive: [8] 94 % of control | dose: 100.0 mg/kg/injection, schedule: Q04DX002 (ip), vehicle: saline with Tween-80 103 % of control and 112 % of control | [9] 103 % of control | [11] 98 % of control and 89 % of control | dose: 200.0 mg/kg/injection, schedule: Q04DX002 (ip), vehicle: saline with Tween-80 97 % of control and 87 % of control | [12] 102 % of control | [14] 102 % of control and 89 % of control | dose: 400.0 mg/kg/injection, schedule: Q04DX002 (ip), vehicle: saline with Tween-80 101 % of control and 91 % of control | [15] 97 % of control

CCC(=O)OC1C(C)OC(OC2C(C)OC(O[C@H]3[C@@H](CC=O)C[C@@H](C)[C@@H](O)/C=C/C=C/C[C@@H](C)OC(=O)C[C@@H](OC(=O)CC)[C@@H]3OC)C(O)C2N(C)C)CC1(C)O (stereo partly specified)
inactive: [1] 96 % of control | [2] 104 % of control | [3] 93 % of control | [4] 95 % of control | [5] 98 % of control | [6] 91 % of control

CCC(=O)OC1(c2ccccc2)CCN(C)CC1C (stereo unspecified)
inactive: dose: 5.0 mg/kg/injection, schedule: Q01DX001 (ip), vehicle: saline 105 % of control | dose: 10.0 mg/kg/injection, schedule: Q01DX001 (ip), vehicle: saline 105 % of control | dose: 20.0 mg/kg/injection, schedule: Q01DX001 (ip), vehicle: saline 102 % of control | dose: 40.0 mg/kg/injection, schedule: Q01DX001 (ip), vehicle: saline 103 % of control | dose: 80.0 mg/kg/injection, schedule: Q01DX001 (ip), vehicle: saline 102 % of control

COc1cc(OC)c(NC(=O)NC(C)C)cc1Cl
inactive: [9] 98 % of control | [12] 89 % of control | [15] 88 % of control
